Measured values as given in ChEMBL document CHEMBL4765323, “Design, synthesis, and biological evaluation of novel miconazole analogues containing selenium as potent antifungal agents” (Eur J Med Chem, 2020).
In brackets after ≈: the same amount, converted by molar mass.

How the values were obtained:
Candida albicans [1] = assay: Antifungal activity against Candida albicans CPCC400616 measured after 24 hrs by micro-broth dilution assay; type: functional
Candida albicans [2] = assay: Antifungal activity against Candida albicans ATCC SC5314 measured after 24 hrs by micro-broth dilution assay; type: functional
[Candida] zeylanoides = Antifungal activity against Candida zeylanoides CMGCC2.3739 measured after 24 hrs by micro-broth dilution assay; type: functional; conditions: Dujonia zeylanoides
Cryptococcus neoformans = assay: Antifungal activity against Cryptococcus neoformans CGMCC2.3161 measured after 72 hrs by micro-broth dilution assay; type: functional
Pichia kudriavzevii = assay: Antifungal activity against Candida krusei AS 2.1045 measured after 24 hrs by micro-broth dilution assay; type: functional
Nakaseomyces glabratus = assay: Antifungal activity against clinical isolate Candida glabrata measured after 24 hrs by micro-broth dilution assay; type: functional
Candida parapsilosis = assay: Antifungal activity against Candida parapsilosis ATCC 22019 measured after 24 hrs by micro-broth dilution assay; type: functional; conditions: Lodderomyces parapsilosis
Aspergillus fumigatus = assay: Antifungal activity against Aspergillus fumigatus CGMCC 3.7795 measured after 72 hrs by micro-broth dilution assay; type: functional
Candida albicans [3] = assay: Antifungal activity against fluconazole-resistant Candida albicans CaR measured after 24 hrs by micro-broth dilution assay; type: functional
Candida albicans [4] = assay: Antifungal activity against fluconazole-resistant Candida albicans 17 measured after 24 hrs by micro-broth dilution assay; type: functional
Candida albicans [5] = assay: Antifungal activity against fluconazole-resistant Candida albicans 632 measured after 24 hrs by micro-broth dilution assay; type: functional
Candida albicans [6] = assay: Antifungal activity against Candida albicans 901 measured after 24 hrs by micro-broth dilution assay; type: functional
Candida albicans [7] = assay: Antifungal activity against fluconazole-resistant Candida albicans strain 904 measured after 24 hrs by micro-broth dilution assay; type: functional
Candida albicans [8] = assay: Fungicidal activity against Candida albicans CPCC400616 measured after 48 hrs; type: functional
[9] = Ratio of MFC for fungicidal activity against Candida albicans CPCC400616 to MIC for Antifungal activity against Candida albicans CPCC400616; type: functional; conditions: time 24 hrs
[10] = Ratio of hemolysis activity in rabbit RBC to MIC for Candida albicans; type: toxicity; conditions: rabbit red blood cells (RBC)
Candida albicans [11] = assay: Inhibition of CYP51 in azole-resistant Candida albicans ATCC […] assessed as ergosterol level at 0.03125 ug/ml incubated for 16 hrs by LC-MS analysis relative to control; parameters: scale not given: the % may be the effect or the level left; conditions: dose 0.03125 µg/ml
Candida albicans [12] = assay: Inhibition of CYP51 in azole-resistant Candida albicans ATCC […] assessed as ergosterol level at 0.125 ug/ml incubated for 16 hrs by LC-MS analysis relative to control; parameters: scale not given: the % may be the effect or the level left; conditions: dose 0.125 µg/ml
Candida albicans [13] = assay: Inhibition of CYP51 in azole-resistant Candida albicans ATCC […] assessed as ergosterol level at 0.5 ug/ml incubated for 16 hrs by LC-MS analysis relative to control; parameters: scale not given: the % may be the effect or the level left; conditions: dose 0.5 µg/ml
Candida albicans [14] = assay: Inhibition of CYP51 in azole-resistant Candida albicans ATCC […] assessed as ergosterol level at 2 ug/ml incubated for 16 hrs by LC-MS analysis relative to control; parameters: scale not given: the % may be the effect or the level left; conditions: dose 2.0 µg/ml
Candida albicans [15] = assay: Antibiofilm activity against FCZ-Resistant Candida albicans CPCC400616 assessed as sessile minimum inhibitory concentration of biofilm formation at 50% after 1.5 hrs by XTT assay; type: functional
Candida albicans [16] = assay: Antibiofilm activity against FCZ-Resistant Candida albicans CPCC400616 assessed as sessile minimum inhibitory concentration of biofilm formation at 50% after 3 hrs by XTT assay; type: functional
Candida albicans [17] = assay: Antibiofilm activity against FCZ-Resistant Candida albicans CPCC400616 assessed as sessile minimum inhibitory concentration of biofilm formation at 50% after 6 hrs by XTT assay; type: functional
Candida albicans [18] = assay: Antibiofilm activity against FCZ-Resistant Candida albicans CPCC400616 assessed as sessile minimum inhibitory concentration of biofilm formation at 50% after 24 hrs by XTT assay; type: functional
Candida albicans [19] = assay: Antibiofilm activity against FCZ-Resistant Candida albicans CPCC400616 assessed as sessile minimum inhibitory concentration of biofilm formation at 80% after 1.5 hrs by XTT assay; type: functional
Candida albicans [20] = assay: Antibiofilm activity against FCZ-Resistant Candida albicans CPCC400616 assessed as sessile minimum inhibitory concentration of biofilm formation at 80% after 3 hrs by XTT assay; type: functional
Candida albicans [21] = assay: Antibiofilm activity against FCZ-Resistant Candida albicans CPCC400616 assessed as sessile minimum inhibitory concentration of biofilm formation at 80% after 6 hrs by XTT assay; type: functional
Candida albicans [22] = assay: Antibiofilm activity against FCZ-Resistant Candida albicans CPCC400616 assessed as sessile minimum inhibitory concentration of biofilm formation at 80% after 24 hrs by XTT assay; type: functional
Candida albicans [23] = assay: Inhibition of CYP51 in azole-resistant Candida albicans ATCC […] assessed as Obtusifoliol level at 0.03125 ug/ml incubated for 16 hrs by LC-MS analysis relative to control; parameters: scale not given: the % may be the effect or the level left; conditions: dose 0.03125 µg/ml
Candida albicans [24] = assay: Inhibition of CYP51 in azole-resistant Candida albicans ATCC […] assessed as Obtusifoliol level at 0.125 ug/ml incubated for 16 hrs by LC-MS analysis relative to control; parameters: scale not given: the % may be the effect or the level left; conditions: dose 0.125 µg/ml
Candida albicans [25] = assay: Inhibition of CYP51 in azole-resistant Candida albicans ATCC […] assessed as Obtusifoliol level at 0.5 ug/ml incubated for 16 hrs by LC-MS analysis relative to control; parameters: scale not given: the % may be the effect or the level left; conditions: dose 0.5 µg/ml
Candida albicans [26] = assay: Inhibition of CYP51 in azole-resistant Candida albicans ATCC […] assessed as Obtusifoliol level at 2 ug/ml incubated for 16 hrs by LC-MS analysis relative to control; parameters: scale not given: the % may be the effect or the level left; conditions: dose 2.0 µg/ml
Candida albicans [27] = assay: Inhibition of CYP51 in azole-resistant Candida albicans ATCC […] assessed as Obtusifoliol level at 8 ug/ml incubated for 16 hrs by LC-MS analysis relative to control; parameters: scale not given: the % may be the effect or the level left; conditions: dose 8.0 µg/ml
Candida albicans [28] = assay: Inhibition of CYP51 in azole-resistant Candida albicans ATCC […] assessed as Lanosterol level at 0.03125 ug/ml incubated for 16 hrs by LC-MS analysis relative to control; parameters: scale not given: the % may be the effect or the level left; conditions: dose 0.03125 µg/ml
Candida albicans [29] = assay: Inhibition of CYP51 in azole-resistant Candida albicans ATCC […] assessed as Lanosterol level at 0.125 ug/ml incubated for 16 hrs by LC-MS analysis relative to control; parameters: scale not given: the % may be the effect or the level left; conditions: dose 0.125 µg/ml
Candida albicans [30] = assay: Inhibition of CYP51 in azole-resistant Candida albicans ATCC […] assessed as Lanosterol level at 0.5 ug/ml incubated for 16 hrs by LC-MS analysis relative to control; parameters: scale not given: the % may be the effect or the level left; conditions: dose 0.5 µg/ml
Candida albicans [31] = assay: Inhibition of CYP51 in azole-resistant Candida albicans ATCC […] assessed as Lanosterol level at 2 ug/ml incubated for 16 hrs by LC-MS analysis relative to control; parameters: scale not given: the % may be the effect or the level left; conditions: dose 2.0 µg/ml
Candida albicans [32] = assay: Inhibition of CYP51 in azole-resistant Candida albicans ATCC […] assessed as Lanosterol level at 8 ug/ml incubated for 16 hrs by LC-MS analysis relative to control; parameters: scale not given: the % may be the effect or the level left; conditions: dose 8.0 µg/ml
Candida albicans [33] = assay: Inhibition of CYP51 in azole-resistant Candida albicans ATCC […] assessed as Eburicol level at 0.03125 ug/ml incubated for 16 hrs by LC-MS analysis relative to control; parameters: scale not given: the % may be the effect or the level left; conditions: dose 0.03125 µg/ml
Candida albicans [34] = assay: Inhibition of CYP51 in azole-resistant Candida albicans ATCC […] assessed as Eburicol level at 0.125 ug/ml incubated for 16 hrs by LC-MS analysis relative to control; parameters: scale not given: the % may be the effect or the level left; conditions: dose 0.125 µg/ml
Candida albicans [35] = assay: Inhibition of CYP51 in azole-resistant Candida albicans ATCC […] assessed as Eburicol level at 0.5 ug/ml incubated for 16 hrs by LC-MS analysis relative to control; parameters: scale not given: the % may be the effect or the level left; conditions: dose 0.5 µg/ml
Candida albicans [36] = assay: Inhibition of CYP51 in azole-resistant Candida albicans ATCC […] assessed as Eburicol level at 2 ug/ml incubated for 16 hrs by LC-MS analysis relative to control; parameters: scale not given: the % may be the effect or the level left; conditions: dose 2.0 µg/ml
Candida albicans [37] = assay: Inhibition of CYP51 in azole-resistant Candida albicans ATCC […] assessed as Eburicol level at 8 ug/ml incubated for 16 hrs by LC-MS analysis relative to control; parameters: scale not given: the % may be the effect or the level left; conditions: dose 8.0 µg/ml
Candida albicans [38] = assay: Inhibition of CYP51 in azole-resistant Candida albicans ATCC […] assessed as inhibition of ergosterol biosynthesis by measuring ergosterol content at 8 ug/ml incubated for 16 hrs by LC-MS analysis relative to control; parameters: scale not given: the % may be the effect or the level left; conditions: dose 8.0 µg/ml

Fc1ccc(C(Cn2ccnc2)[Se]Cc2ccccc2Br)c(F)c1 (stereo not given)
MIC (Candida albicans [1]): 0.02 µg/mL (≈ 0.0438 µM)
MIC (Candida albicans [2]): 0.01 µg/mL (≈ 0.0219 µM)
MIC ([Candida] zeylanoides): 0.25 µg/mL (≈ 0.548 µM)
MIC (Cryptococcus neoformans): 0.25 µg/mL (≈ 0.548 µM)
MIC (Pichia kudriavzevii): 0.06 µg/mL (≈ 0.132 µM)
MIC (Nakaseomyces glabratus): 1 µg/mL (≈ 2.19 µM)
MIC (Candida parapsilosis): 0.02 µg/mL (≈ 0.0438 µM)
MIC (Aspergillus fumigatus): 1 µg/mL (≈ 2.19 µM)
MIC (Candida albicans [3]): 0.13 µg/mL (≈ 0.285 µM)
MIC (Candida albicans [4]): 0.06 µg/mL (≈ 0.132 µM)
MIC (Candida albicans [5]): 0.25 µg/mL (≈ 0.548 µM)
MIC (Candida albicans [6]): 0.25 µg/mL (≈ 0.548 µM)
MIC (Candida albicans [7]): 0.06 µg/mL (≈ 0.132 µM)
MIC (Candida albicans [8]): 0.125 µg/mL (≈ 0.274 µM)
MFC/MIC ratio [9]: 8
selectivity ratio [10]: 512

Clc1ccc(COC(Cn2ccnc2)c2ccc(Cl)cc2Cl)c(Cl)c1 (stereo not given) [MICONAZOLE]
MIC (Candida albicans [1]): 0.25 µg/mL (≈ 0.601 µM)
MIC (Candida albicans [2]): 0.03 µg/mL (≈ 0.0721 µM)
MIC ([Candida] zeylanoides): 1 µg/mL (≈ 2.4 µM)
MIC (Cryptococcus neoformans): 0.5 µg/mL (≈ 1.2 µM)
MIC (Pichia kudriavzevii): 0.5 µg/mL (≈ 1.2 µM)
MIC (Nakaseomyces glabratus): 0.5 µg/mL (≈ 1.2 µM)
MIC (Candida parapsilosis): 0.25 µg/mL (≈ 0.601 µM)
MIC (Aspergillus fumigatus): 2 µg/mL (≈ 4.81 µM)
MIC (Candida albicans [8]): 2 µg/mL (≈ 4.81 µM)
MFC/MIC ratio [9]: 8
Activity (Candida albicans [11]): 11.3%
Activity (Candida albicans [12]): 7.3%
Activity (Candida albicans [13]): 8.3%
Activity (Candida albicans [14]): 5.49%
Activity (Candida albicans [15]): 16 µg/mL
Activity (Candida albicans [16]): 32 µg/mL
Activity (Candida albicans [17]): >128 µg/mL
Activity (Candida albicans [18]): >128 µg/mL
Activity (Candida albicans [19]): 128 µg/mL
Activity (Candida albicans [20]): 128 µg/mL
Activity (Candida albicans [21]): >128 µg/mL
Activity (Candida albicans [22]): >128 µg/mL
selectivity ratio [10]: 8
Activity (Candida albicans [23]): 2.9%
Activity (Candida albicans [24]): 7.2%
Activity (Candida albicans [25]): 6.1%
Activity (Candida albicans [26]): 9.7%
Activity (Candida albicans [27]): 14.6%
Activity (Candida albicans [28]): 12.4%
Activity (Candida albicans [29]): 14.1%
Activity (Candida albicans [30]): 8.9%
Activity (Candida albicans [31]): 6.4%
Activity (Candida albicans [32]): 7.8%
Activity (Candida albicans [33]): 2.9%
Activity (Candida albicans [34]): 63.5%
Activity (Candida albicans [35]): 64.8%
Activity (Candida albicans [36]): 80.7%
Activity (Candida albicans [37]): 74.2%
Activity (Candida albicans [38]): 0%

Clc1ccc(C(Cn2ccnc2)[Se]Cc2ccccc2Br)c(Cl)c1 (stereo not given)
MIC (Candida albicans [1]): 0.02 µg/mL (≈ 0.0409 µM)
MIC (Candida albicans [2]): 0.01 µg/mL (≈ 0.0204 µM)
MIC ([Candida] zeylanoides): 0.25 µg/mL (≈ 0.511 µM)
MIC (Cryptococcus neoformans): 0.5 µg/mL (≈ 1.02 µM)
MIC (Pichia kudriavzevii): 0.25 µg/mL (≈ 0.511 µM)
MIC (Nakaseomyces glabratus): 0.5 µg/mL (≈ 1.02 µM)
MIC (Candida parapsilosis): 0.03 µg/mL (≈ 0.0613 µM)
MIC (Aspergillus fumigatus): 1 µg/mL (≈ 2.04 µM)
MIC (Candida albicans [3]): 0.5 µg/mL (≈ 1.02 µM)
MIC (Candida albicans [4]): 0.5 µg/mL (≈ 1.02 µM)
MIC (Candida albicans [5]): 1 µg/mL (≈ 2.04 µM)
MIC (Candida albicans [6]): 1 µg/mL (≈ 2.04 µM)
MIC (Candida albicans [7]): 0.25 µg/mL (≈ 0.511 µM)
MIC (Candida albicans [8]): 0.25 µg/mL (≈ 0.511 µM)
MFC/MIC ratio [9]: 16
